Reference: US20170112859A1, “METHOD OF TREATMENT USING AN ASSOCIATION OF LOSARTAN AND ACETYLSALICYLIC ACID, AND KIT” (BIOLAB SANUS FARMACEUTICA LTDA, priority 2014, published 2017)
Entries after “also recorded” stand apart in the source; their conditions may differ.

Legend:
[1] = tested on: prostaglandin synthesis (PGE2) in gastric mucosa; assay: prostaglandin-E2 concentration in antrum biopsies collected during endoscopy, pre- and post-treatment; type: in vivo, human; conditions: 30 days
Procedure: (§1) One group (Arm A) received 30 days of daily doses of 50 mg of losartan potassium and 81 mg of acetylsalicylic acid. The second group (Arm B) received over the same 30 day period, daily doses of 50 mg of losartan potassium and doses of 81 mg of acetylsalicylic acid only every three days.
To obtain this proof, endoscopic tests were performed on each volunteer, always before starting treatment and also after treatment, when biopsies were collected.
From these samples, collected from both Arm A and Arm B of the treatment, the inhibition of prostaglandin was measured.

[2] = molecular target: T1, platelet cyclooxygenase enzyme (Homo sapiens, UniProt P23219); assay: measurement of thromboxane B2 (TXB2) in stimulated platelet-rich plasma by immunoenzymatic technique; type: in vivo; conditions: D15-D17
T1 construct: from tissue; host or cells: platelets of dosed healthy volunteers (ex vivo stimulation with arachidonic acid or ADP)
T1 sequence (P23219 24-599): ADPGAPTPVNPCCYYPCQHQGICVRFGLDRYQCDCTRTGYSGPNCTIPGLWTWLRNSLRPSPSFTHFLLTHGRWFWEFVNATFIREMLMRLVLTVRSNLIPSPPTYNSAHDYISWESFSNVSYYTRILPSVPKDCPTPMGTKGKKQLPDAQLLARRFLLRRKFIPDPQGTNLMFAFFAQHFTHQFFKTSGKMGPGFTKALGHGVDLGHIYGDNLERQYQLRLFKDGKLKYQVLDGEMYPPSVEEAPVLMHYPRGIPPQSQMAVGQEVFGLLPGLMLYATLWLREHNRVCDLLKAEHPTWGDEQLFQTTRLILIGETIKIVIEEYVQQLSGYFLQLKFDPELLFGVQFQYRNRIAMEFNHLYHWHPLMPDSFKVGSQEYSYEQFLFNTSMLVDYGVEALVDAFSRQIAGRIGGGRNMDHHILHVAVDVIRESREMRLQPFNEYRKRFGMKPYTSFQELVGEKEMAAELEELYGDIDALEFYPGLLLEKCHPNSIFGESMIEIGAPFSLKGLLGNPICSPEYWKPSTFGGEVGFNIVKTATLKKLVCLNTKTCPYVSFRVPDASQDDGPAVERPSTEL
Procedure: as §1
(§2) Control of bioavailability for acetylsalicylic acid in the analyzed individuals was performed through platelet aggregation tests, using arachidonic acid and adenosine diphosphate (ADP) as stimulants, and through the measuring of thromboxane by immunoenzymatic techniques.
Such control is based on tests to evaluate the competition between two compounds for binding to a specific antibody, namely, free thromboxane 2 (TXB 2) to be analyzed and present in the samples tested, and marked thromboxane 2 (TXB 2), attached to a molecule of acetylcholinesterase and with constant concentration (provided by the test kits).
(§3) The test results shown in FIGS. 1 to 6 consider four periods: D0, which is the pre-test time D15—the fifteenth day of testing, D16—the sixteenth day of testing and D17—the seventeenth day testing.

[3] = tested on: prostaglandin synthesis (PGE2) in gastric mucosa; conditions: daily use, as described in the prior art; cited from earlier work
[4] = tested on: platelet aggregation; assay: platelet aggregation tests with arachidonic acid or ADP as stimulants, volunteers' platelet-rich plasma; type: in vivo, human
Procedure: as §1, §2, §3

[5] = Arm A: 81 mg daily plus 50 mg losartan potassium daily
[6] = Arm B: 81 mg every three days plus 50 mg losartan potassium daily

## CC(=O)Oc1ccccc1C(=O)O [acetylsalicylic acid]
[1]; [5]
  prostaglandin (PGE2) levels post-treatment versus pre-treatment basal: significant decrease
[1]; [6]
  prostaglandin (PGE2) levels post-treatment versus pre-treatment basal: did not alter the basal dose; also recorded: remained unaltered
[2]; [5]
  inhibition of the platelet cyclooxygenase enzyme: satisfactory inhibition
[2]; [6]
  inhibition of the platelet cyclooxygenase enzyme: satisfactory inhibition
[3]
  PGE2 levels: drastically reduces
[4]; Arm A (81 mg daily) compared with Arm B (81 mg every three days), both with 50 mg losartan potassium daily, 30 days, healthy volunteers, stimulants arachidonic acid 300 μg/ml or ADP 20 μM
  level of platelet inhibition: almost the same level of platelet inhibition
[4]; acetylsalicylic acid administered every three days
  inhibitory effect of the platelet aggregation: sustained
